# Tested on: 624824-186-R-J3-PDC multicell spheroids, viability
# Experiment: Anticancer human tumor 624824-186-R-J3-PDC patient-derived colon adenocarcinoma cell line growth inhibition [PI3K]
# Conditions: for IC50: curve of first compound; for viability, T/C: stronger effect = lower value
# Procedure, shortened: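 Complex 3D spheroids (cancer cells + endothelial HUVEC + mesenchymal stem cells); drug pairs of targeted agent x inavolisib/alpelisib/duvelisib/copanlisib; half-log series from ~Cmax, max 10 microM if Cmax unknown; endpoint viability.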
# 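Further: spheroids exposed to agents for seven days before luminescence read.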
# 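Wherever viability, T/C is given: luminescent signal used as a stand-in for spheroid viability; percent viability relative to DMSO vehicle control wells taken as 100%.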
smiles,measurement,setting,value
CCCS(=O)(=O)Nc1ccc(F)c(C(=O)c2c[nH]c3ncc(-c4ccc(Cl)cc4)cc23)c1F + CC(Nc1ncnc2nc[nH]c12)c1cc2cccc(Cl)c2c(=O)n1-c1ccccc1,IC50,second compound 0.0316 µM,4.91 µM
same,IC50,second compound 0.1 µM,4.92 µM
same,IC50,second compound 0.316 µM,5.07 µM
same,IC50,second compound 1 µM,4.8 µM
same,IC50,second compound 3.16 µM,4.68 µM
same,IC50,second compound 10 µM,2.45 µM
same,"viability, T/C","second compound 0.0316 µM, first compound 0.0316 µM",102%
same,"viability, T/C","second compound 0.0316 µM, first compound 0.1 µM",101%
same,"viability, T/C","second compound 0.0316 µM, first compound 0.316 µM",89.4%
same,"viability, T/C","second compound 0.0316 µM, first compound 1 µM",98%
same,"viability, T/C","second compound 0.0316 µM, first compound 3.16 µM",76%
same,"viability, T/C","second compound 0.0316 µM, first compound 10 µM",7.94%
same,"viability, T/C","second compound 0.1 µM, first compound 0.0316 µM",102%
same,"viability, T/C","second compound 0.1 µM, first compound 0.1 µM",104%
same,"viability, T/C","second compound 0.1 µM, first compound 0.316 µM",94.1%
same,"viability, T/C","second compound 0.1 µM, first compound 1 µM",90.5%
same,"viability, T/C","second compound 0.1 µM, first compound 3.16 µM",78.9%
same,"viability, T/C","second compound 0.1 µM, first compound 10 µM",6.92%
same,"viability, T/C","second compound 0.316 µM, first compound 0.0316 µM",102%
same,"viability, T/C","second compound 0.316 µM, first compound 0.1 µM",95.2%
same,"viability, T/C","second compound 0.316 µM, first compound 0.316 µM",108%
same,"viability, T/C","second compound 0.316 µM, first compound 1 µM",91.7%
same,"viability, T/C","second compound 0.316 µM, first compound 3.16 µM",80.4%
same,"viability, T/C","second compound 0.316 µM, first compound 10 µM",7.81%
same,"viability, T/C","second compound 1 µM, first compound 0.0316 µM",99.9%
same,"viability, T/C","second compound 1 µM, first compound 0.1 µM",103%
same,"viability, T/C","second compound 1 µM, first compound 0.316 µM",91.5%
same,"viability, T/C","second compound 1 µM, first compound 1 µM",84%
same,"viability, T/C","second compound 1 µM, first compound 3.16 µM",78.2%
same,"viability, T/C","second compound 1 µM, first compound 10 µM",7.61%
same,"viability, T/C","second compound 3.16 µM, first compound 0.0316 µM",100%
same,"viability, T/C","second compound 3.16 µM, first compound 0.1 µM",90.5%
same,"viability, T/C","second compound 3.16 µM, first compound 0.316 µM",97.1%
same,"viability, T/C","second compound 3.16 µM, first compound 1 µM",81%
same,"viability, T/C","second compound 3.16 µM, first compound 3.16 µM",74.2%
same,"viability, T/C","second compound 3.16 µM, first compound 10 µM",9.32%
same,"viability, T/C","second compound 10 µM, first compound 0.0316 µM",97.4%
same,"viability, T/C","second compound 10 µM, first compound 0.1 µM",74.6%
same,"viability, T/C","second compound 10 µM, first compound 0.316 µM",73.7%
same,"viability, T/C","second compound 10 µM, first compound 1 µM",60.5%
same,"viability, T/C","second compound 10 µM, first compound 3.16 µM",56%
same,"viability, T/C","second compound 10 µM, first compound 10 µM",11.7%

# Source: PubChem BioAssay AID1963977 (Molecular Pharmacology Branch, DTP, NCI, 2024)
